# Measurements: patent publication US6096788A, “Antimalaria and antibabesiosis agents and pharmaceutical compositions containing such agents” (priority 1996, dated 2000)
# Assays:
# [1] = Therapeutic index in infected mice (antimalaria activity compared with semi-chronic toxicity); assay type: in vivo; conditions: mouse, in vivo, i.p. or s.c., twice a day for four days, ratio of activity over toxicity (LD50)
# Protocol: In order to evaluate the therapeutic index of the different products, the activity of these products was tested in vivo and compared with […] toxicity in animals. This activity was measured using the test described by PETERS W. (Chemotherapy and Drug resistance in Malaria, 1970). A compound was administered for four consecutive days to mice previously infected with Plasmodium vinckei, petterei or chabaudi. The said compound was dissolved in a 0.9% NaCl solution. The preparations were thus administered intraperitoneally or subcutaneously in male Swiss mice infected by intravenous injection of Plasmodium petterei or Plasmodium chadaudi (10^6 infected cells). The compound was administered twice a day for four consecutive days, the first injection being performed two hours after the infestation and the second, 10 hours later. The parasitemia was determined on blood smears the day after the end of treatment. Toxicity was measured in vivo following the same schedule, the animals having received, under the same administration conditions as above, two injections per day for four days (semi-chronic toxicity). The results are expressed in lethal dose 50 (LD50), i.e. the dose causing death in 50% of the animals.
# The results of these trials are summarized in Table I, below, and expressed as therapeutic index, or the ratio of activity over toxicity measured under the identical conditions described above.
# [2] = system: Babesia bovis, Babesia canis; experiment: In vitro antibabesia activity, (3H) hypoxanthine incorporation; assay type: cell-based; conditions: score from ED50 of (3H) hypoxanthine incorporation
# Source text: The screening process for antimalaria activity, based on parasite incorporation of (^3 H) hypoxanthine was used to test the antimetabolic activity of such components against Babesia bovis, Babesia canis. A tight relationship was found between the rate of (^3 H) hypoxanthine incorporation using standard measurements and the percentage of parasitized cells determined by microscopy. […] The score was ++ for the same activity at a concentration of 0.01 to 0.1 micromoles and finally + for a concentration under or equal to 1 micromole.
smiles,measurement,setting,value
"CCC[N+](C)(CC)CCCCCCCCCCCCCC[N+](C)(CC)CCC (stereo not drawn) [EXAMPLE 1, N,N'-dimethyl-N,N'-diethyl-N,N'-dipropyl-1,14 tetradecanediaminium, dibromide]",selectivity ratio,[1],50
same,Antibabesia activity at 10 millimoles,[2],++ (the same activity at a concentration of 0.01 to 0.1 micromoles)
"CCC[N+](C)(CC)CCCCCCCCCCCCCCC[N+](C)(CC)CCC.[Br-].[Br-] (stereo not drawn) [EXAMPLE 2, N,N'-dimethyl-N,N'-diethyl-N,N'-dipropyl-1,15-pentadecanediaminium dibromide]",selectivity ratio,[1],42
same,Antibabesia activity at 10 millimoles,[2],+ (a concentration under or equal to 1 micromole)
"CCC[N+](C)(CC)CCCCCCCCCCCCCCCC[N+](C)(CC)CCC.[Br-].[Br-] (stereo not drawn) [EXAMPLE 3, N,N'-dimethyl-N,N'-diethyl-N,N'-dipropyl-1,16-hexadecanediaminium dibromide]",selectivity ratio,[1],15
"CCC[N+](C)(CC)CCCCCCCCCCCCCCCCC[N+](C)(CC)CCC.[Br-].[Br-] (stereo not drawn) [EXAMPLE 4, N,N'-dimethyl-N,N'-diethyl-N,N'-dipropyl-1,17-heptadecanediaminium dibromide]",selectivity ratio,[1],17
same,Antibabesia activity at 10 millimoles,[2],++ (the same activity at a concentration of 0.01 to 0.1 micromoles)
"CCC[N+](C)(CC)CCCCCCCCCCCCCCCCCC[N+](C)(CC)CCC.[Br-].[Br-] (stereo not drawn) [EXAMPLE 5, N,N'-dimethyl-N,N'-diethyl-N,N'-dipropyl-1,18-octadecanediaminium dibromide]",selectivity ratio,[1],12
same,Antibabesia activity at 10 millimoles,[2],"+++ (a 50% inhibition of (^3 H) hypoxanthine incorporation (ED50), these molecules having a concentration less than or equal to 0.01 micromoles)"
"CCC[N+](C)(CC)CCCCCCCCCCCCCCCCCCCC[N+](C)(CC)CCC.[Br-].[Br-] (stereo not drawn) [EXAMPLE 6, N,N'-dimethyl-N,N'-diethyl-N,N'-dipropyl-1,20-eicosanediaminium dibromide]",selectivity ratio,[1],15
same,Antibabesia activity at 10 millimoles,[2],++ (the same activity at a concentration of 0.01 to 0.1 micromoles)
"CCC[N+](C)(CC)CCCCCCCCCCCCCCCCCCCCCC[N+](C)(CC)CCC (stereo not drawn) [EXAMPLE 7, N,N'-dimethyl-N,N'-diethyl-N N'-dipropyl-1,22-cosanediaminium dibromide]",selectivity ratio,[1],35
same,Antibabesia activity at 10 millimoles,[2],++ (the same activity at a concentration of 0.01 to 0.1 micromoles)
"CCC[N+](CCC)(CCC)CCCCCCCCCCCCCC[N+](CCC)(CCC)CCC.[Br-].[Br-] [EXAMPLE 8, N,N,N,N',N',N'-hexapropyl-1,14-tetradecanediaminium dibromide]",selectivity ratio,[1],20
same,Antibabesia activity at 10 millimoles,[2],+ (a concentration under or equal to 1 micromole)
"CCC[N+](CCC)(CCC)CCCCCCCCCCCCCCCCCCCC[N+](CCC)(CCC)CCC.[Br-].[Br-] [EXAMPLE 10, N,N,N,N', N',N'-hexapropyl-1,20-eicosanediaminium dibromide]",selectivity ratio,[1],14
same,Antibabesia activity at 10 millimoles,[2],+ (a concentration under or equal to 1 micromole)
"CCC[N+](CCC)(CCC)CCCCCCCCCCCCCCCCCCCCCCCC[N+](CCC)(CCC)CCC.[Br-].[Br-] [EXAMPLE 11, N,N,N,N',N',N'-hexapropyl-1,24-tetracosanediaminium dibromide]",selectivity ratio,[1],28
same,Antibabesia activity at 10 millimoles,[2],+ (a concentration under or equal to 1 micromole)
"CC[N+](C)(CC)CCCCCCCCCCCCCCCC[N+](C)(CC)CC [EXAMPLE 13, N,N'-dimethyl-,N,N,N',N'-tetraethyl-1,16-hexadecanediaminium dibromide]",selectivity ratio,[1],6
same,Antibabesia activity at 10 millimoles,[2],"+++ (a 50% inhibition of (^3 H) hypoxanthine incorporation (ED50), these molecules having a concentration less than or equal to 0.01 micromoles)"
"CC[N+](C)(CC)CCCCCCCCCCCCCCCCCC[N+](C)(CC)CC [EXAMPLE 14, N,N'-dimethyl-,N,N,N',N'-tetraethyl-1,18-octadecanediaminium dibromide]",selectivity ratio,[1],14
same,Antibabesia activity at 10 millimoles,[2],"+++ (a 50% inhibition of (^3 H) hypoxanthine incorporation (ED50), these molecules having a concentration less than or equal to 0.01 micromoles)"
"CC[N+](C)(CC)CCCCCCCCCCCCCCCCCCCCC[N+](C)(CC)CC [EXAMPLE 15, N,N'-dimethyl-,N,N,N',N'-tetraethyl-1,21-heneicosanediaminium dibromide]",selectivity ratio,[1],12
same,Antibabesia activity at 10 millimoles,[2],"+++ (a 50% inhibition of (^3 H) hypoxanthine incorporation (ED50), these molecules having a concentration less than or equal to 0.01 micromoles)"
"C[N+]1(CCCCCCCCCCCCCC[N+]2(C)CCCC2)CCCC1 [EXAMPLE 16, 1,1'-(1,14-tetradecanediyl)bis(1-methylpyrrolidium) dibromide]",selectivity ratio,[1],8
same,Antibabesia activity at 10 millimoles,[2],"+++ (a 50% inhibition of (^3 H) hypoxanthine incorporation (ED50), these molecules having a concentration less than or equal to 0.01 micromoles)"
"C[N+]1(CCCCCCCCCCCCCCCC[N+]2(C)CCCC2)CCCC1 [EXAMPLE 17, 1,1'-(1,16-hexadecanediyl)bis(1-methylpyrrolidium) dibromide]",selectivity ratio,[1],7
same,Antibabesia activity at 10 millimoles,[2],"+++ (a 50% inhibition of (^3 H) hypoxanthine incorporation (ED50), these molecules having a concentration less than or equal to 0.01 micromoles)"
"C[N+]1(CCCCCCCCCCCCCCCCCCCCCC[N+]2(C)CCCC2CO)CCCC1CO (stereo not drawn) [EXAMPLE 19, 1,1'-(1,22-docosanediyl)bis(2-hydroxymethl-1-methylpyrrolidium) dibromide]",selectivity ratio,[1],40
same,Antibabesia activity at 10 millimoles,[2],+ (a concentration under or equal to 1 micromole)
"C[N+]1(CCCCCCCCCCCCCCCC[N+]2(C)CCOCC2)CCOCC1 [EXAMPLE 21, 1,1'-(1,16-hexadecanediyl)bis(1-methylmorphofinium) dibromide]",selectivity ratio,[1],25
same,Antibabesia activity at 10 millimoles,[2],"+++ (a 50% inhibition of (^3 H) hypoxanthine incorporation (ED50), these molecules having a concentration less than or equal to 0.01 micromoles)"
"CCCCCCCCCCCC[N+](C)(C)CCCCCCCCCCCCCCCC[N+](C)(C)CCCCCCCCCCCC.[Br-].[Br-] [EXAMPLE 22, N,N'-didodecyl-N,N,N',N'-tetramethyl-1,16-hexadecanediaminium dibromide]",selectivity ratio,[1],20
same,Antibabesia activity at 10 millimoles,[2],++ (the same activity at a concentration of 0.01 to 0.1 micromoles)
CCCCCCCCCCCC[N+](C)(C)CCCCCCCCCCCCCCCCCC[N+](C)(C)CCCCCCCCCCCC [EXAMPLE 23],selectivity ratio,[1],35
same,Antibabesia activity at 10 millimoles,[2],+ (a concentration under or equal to 1 micromole)
"C#CC[N+](C)(C)CCCCCCCCCCCCCC[N+](C)(C)CC#C.[Br-].[Br-] [EXAMPLE 24, N,N'-di(2-propynyl)-N,N,N',N'-tetramethyl-1,14-tetradecandiaminium dibromide]",selectivity ratio,[1],12
same,Antibabesia activity at 10 millimoles,[2],++ (the same activity at a concentration of 0.01 to 0.1 micromoles)
"C=CC[N+](C)(C)CCCCCCCCCCCCCC[N+](C)(C)CC=C.[Br-].[Br-] [EXAMPLE 25, N,N'-di(2-propenyl)-N,N,N',N'-tetramethyl-1,14-tetradecanediaminium dibromide]",selectivity ratio,[1],15
same,Antibabesia activity at 10 millimoles,[2],"+++ (a 50% inhibition of (^3 H) hypoxanthine incorporation (ED50), these molecules having a concentration less than or equal to 0.01 micromoles)"
"C#CCC[N+](C)(C)CCCCCCCCCCCCCC[N+](C)(C)CCC#C.[Br-].[Br-] [EXAMPLE 26, N,N'-di(3-butynyl)-N,N,N',N'-tetramethyl-1,14-tetradecanediaminium dibromide]",selectivity ratio,[1],45
same,Antibabesia activity at 10 millimoles,[2],++ (the same activity at a concentration of 0.01 to 0.1 micromoles)
"CCC[N+](CCC)(CCO)CCCCCCCCCCCCCC[N+](CCC)(CCC)CCO.[Br-].[Br-] [EXAMPLE 27, N,N'-di(2-hydroxyethyl)-N,N,N',N'-tetrapropyl-1,14-tetradecanediaminium dibromide]",selectivity ratio,[1],15
same,Antibabesia activity at 10 millimoles,[2],++ (the same activity at a concentration of 0.01 to 0.1 micromoles)
"CCC[N+](CCC)(CCCCCCCCCCCCCC[N+](CCC)(CCC)CCOCC)CCOCC.[Br-].[Br-] [EXAMPLE 28, N,N'-di(2-ethoxyethyl)-N,N,N',N'-tetrapropyl-1,14-tetradecanediaminium dibromide]",selectivity ratio,[1],40
same,Antibabesia activity at 10 millimoles,[2],"+++ (a 50% inhibition of (^3 H) hypoxanthine incorporation (ED50), these molecules having a concentration less than or equal to 0.01 micromoles)"
"CCC[N+](CCC)(CCO)CCCCCCCCCCCCCCCC[N+](CCC)(CCC)CCO.[Br-].[Br-] [EXAMPLE 29, N,N'-di-(2-hydroxyethyl)-N,N,N',N'-tetrapropyl-1,16 hexadecane diaminium dibromide]",selectivity ratio,[1],12
same,Antibabesia activity at 10 millimoles,[2],++ (the same activity at a concentration of 0.01 to 0.1 micromoles)
"CCC[N+](CCC)(CCO)CCCCCCCCCCCCCCCCCCCC[N+](CCC)(CCC)CCO.[Br-].[Br-] [EXAMPLE 30, N,N'-di(2-hydroxyethyl)-N,N,N',N'-tetrapropyl-1,20-eicosanediaminium dibromide]",selectivity ratio,[1],55
same,Antibabesia activity at 10 millimoles,[2],"+++ (a 50% inhibition of (^3 H) hypoxanthine incorporation (ED50), these molecules having a concentration less than or equal to 0.01 micromoles)"
